According to article PMC6467762 (ACS infectious diseases, 2018):
“Also recorded” adds a separate entry of the source. Like-named read-outs stand apart in the source and are kept apart here.

What was measured:
[1] = test system: PfDHODH; details: cited from earlier work
[2] = test system: P. falciparum Dd2 WT; assay: microbe, parasite or virus in culture; assay type: cell-based; details: Plasmodium falciparum, DD2|DSM265, read-out: DSM265 EC50
[3] = test system: P. falciparum Dd2 R10ClB (DHODH G181C); assay: P. falciparum growth EC50 determination; assay type: cell-based; details: Plasmodium falciparum, DD2|DSM265, read-out: DSM265 EC50
[4] = test system: P. falciparum Dd2 RIAClB (DHODH C276F); assay: P. falciparum growth EC50 determination; assay type: cell-based; details: Plasmodium falciparum, DD2|DSM265, read-out: DSM265 EC50
[5] = test system: P. falciparum Dd2 R1BClA (DHODH L531F); assay: P. falciparum growth EC50 determination; assay type: cell-based; details: Plasmodium falciparum, DD2|DSM265, read-out: DSM265 EC50
[6] = test system: P. falciparum Dd2 R2B (DHODH R265G); assay: P. falciparum growth EC50 determination; assay type: cell-based; details: Plasmodium falciparum, DD2|DSM265, read-out: DSM265 EC50
[7] = test system: P. falciparum Dd2 R3B (DHODH E182D); assay: P. falciparum growth EC50 determination; assay type: cell-based; details: Plasmodium falciparum, DD2|DSM265, read-out: DSM265 EC50
[8] = test system: P. falciparum Dd2 parent; assay: In vitro 72 h drug susceptibility assay, CRISPR/Cas9 study; assay type: cell-based; details: Plasmodium falciparum, DD2|DSM265, read-out: DSM265 EC50
[9] = test system: P. falciparum Dd2 BSmut control; assay: as above; assay type: cell-based; details: Plasmodium falciparum, DD2|DSM265, read-out: DSM265 EC50
[10] = test system: P. falciparum Dd2^Dhodh C276Y (CRISPR/Cas9-edited clones); assay: as above; assay type: cell-based; details: Plasmodium falciparum, DD2|DSM265, read-out: DSM265 EC50
[11] = test system: P. falciparum blood stage; details: humans; cited from earlier work
[12] = test system: P. falciparum sporozoite; details: cited from earlier work
[13] = test system: P. falciparum malaria; details: cited from earlier work
[14] = test system: P. vivax; details: compared with P. falciparum; cited from earlier work
[15] = single ascending dose (25–1200 mg), humans; cited from earlier work
[16] = neutral pH; cited from earlier work
[17] = test system: P. falciparum; details: number of parasites; cited from earlier work
[18] = test system: DSM265-resistant P. falciparum Dd2 parasites; assay: Drug sensitivity of DSM265-resistant Dd2 parasites; assay type: cell-based, Plasmodium falciparum; details: DSM265-selected Dd2 mutant lines; values in Table S1 (not available)
[19] = test system: P. falciparum line from second round of DSM1 selections (increased dhodh copy number); details: cited from earlier work

## Cc1cc(Nc2ccc3ccccc3c2)n2ncnc2n1 [DSM1, 5-methyl-N-(naphthalen-2-yl)-[1,2,4]triazolo[1,5-a]pyrimidin-7-amine]
[1]
  Mode of inhibition: competitive inhibitor of CoQ

## Cc1cc(Nc2ccc(S(F)(F)(F)(F)F)cc2)n2nc(C(C)(F)F)nc2n1 [DSM265, 2-(1,1-difluoroethyl)-5-methyl-[N-[4-(pentafluorosulfanyl)phenyl] 1,2,4]triazolo[1,5-a]pyrimidin-7-amine]
[2]
  EC50: 4.6 ± 1.1 nM
[3]
  EC50: 150 ± 51 nM
[4]
  EC50: 170 ± 55 nM
[5]
  EC50: 110 ± 17 nM
[6]
  EC50: 150 ± 73 nM
[7]
  EC50: 71 ± 13 nM
[8]
  EC50: 4.8 ± 0.86 nM
[9]
  EC50: 5.1 ± 0.31 nM
[10]
  EC50: 120 ± 26 nM
[11]
  Efficacy in blood stage human challenge study: demonstrating efficacy
[12]; dosed 3 or 7 days before challenge
  Protection from infection: partial protection
[12]; single dose of 400 mg given 1 day prior to challenge
  Protection from infection: full protection
[13]; single dose of 250 mg
  Cure rate: 60%
[13]; single dose of 400 mg
  Patients parasite free, extended 28-day endpoint: 8/9
[14]
  Efficacy against P. vivax: lower
[15]
  Safety: good safety
[16]
  Solubility limit: ~ 30 μM
[17]
  Minimum inoculum of resistance for the emergence of DSM265-resistant parasites: ≥ 10^5

## C[C@@H]1CC[C@H]2[C@@H](C)C(=O)O[C@@H]3O[C@@]4(C)CC[C@@H]1[C@]32OO4 [artemisinin]
[18]
  Sensitivity of DSM265-resistant parasites (EC50 vs parent Dd2): fully sensitive; also recorded: retained full sensitivity

## O=C1C(O)=C([C@H]2CC[C@H](c3ccc(Cl)cc3)CC2)C(=O)c2ccccc21 [atovaquone]
[18]
  Sensitivity of DSM265-resistant parasites (EC50 vs parent Dd2): retained full sensitivity; also recorded: fully sensitive
[19]
  Sensitivity of DSM1-selected, dhodh-amplified cell line: partial tolerance
